{"source": "paper PMC8592624", "about": "“Rapid and improved oral absorption of N-butylphthalide by sodium cholate-appended liposomes for efficient ischemic stroke therapy” (Drug Delivery, 2021)", "key": {"[1]": {"system": "cerebral ischemia/reperfusion (I/R) model", "experiment": "Cerebral ischemia/reperfusion (I/R) model, middle cerebral artery occlusion (MCAO)", "format": "in vivo", "conditions": "MCAO rats, 30 mg/kg p.o.", "method": "Rats (280-320 g) were divided into five groups randomly (n = 10 per group): […] After lateral neck incision, the internal carotid artery, right common carotid artery […] and external carotid artery were exposed. A surgical nylon suture was gently advanced to occlude MCA until slight resistance was felt (18-20 mm from MCA bifurcation). 1.5 hours post MCAO, reperfusion was inducted by taking out the suture and the rats were immediately orally given the predetermined formulations. The sham operated group received the same surgery in the […] of the MCAO and drug treatment. The core body temperature was kept constant (37 ± 0.5 °C) for 24 h post reperfusion. Neurological deficit of rats was then assessed by the blinded Longa's method. […] The cerebral infarct area (White) was analyzed by Image-J and represented as a percentage of the total brain area. Histological alterations of brain samples from the remaining rats were analyzed via hematoxylin and esosin (H&E) staining and then observed under a microscope. The levels of malondialdehyde (MDA), superoxide dismutase (SOD) and glutathione peroxidase (GSH-Px) in brain lysates were determined 24 h after reperfusion according to the protocols of the specific agent kit (Servicebio, Wuhan, China)."}, "Pharmacokinetics in rats": {"experiment": "Pharmacokinetics in rats", "format": "in vivo, Sprague-Dawley rats", "method": "Male Sprague-Dawley rats (250 ± 20 g) were obtained from the laboratory animal center of Zhengzhou University (Zhengzhou, China). The animal experiments were conducted in accordance with the Regional Ethics Committee and protocols from the Institutional Animal Care and Use Committee of Zhengzhou University. Rats were fasted overnight with free access of water before the pharmacokinetic studies. To begin with, rats were randomly assigned into three groups. […] 0.5 mL of blood was taken from rats by retro-orbital sinus at 0.083, 0.25, 0.5, 1, 2, 3, 4, 6, 8, and 10 h after administration, respectively. The concentration of NBP in plasma was determined by HPLC after suitable processing. Briefly, 300 µL methanol was mixed with 100 µL of plasma and the resultant suspension was centrifuged (12,000 rpm, 10 min). The supernatant obtained was analyzed by a validated HPLC method (Supplementary Table 2). The pharmacokinetic parameters were obtained using DAS 3.0 software (Mathematical Pharmacology Professional Committee of China) and were presented as mean ± SD. The absolute bioavailability (Fa) and the relative bioavailability (Fr) were calculated by the following equations, respectively: (4) Fa (%)=AUC0−t, oralDosei.v/AUC0−t, i.vDoseoral (5) Fr (%)=AUC0−t, formulation/AUC0−t, NBP suspension\nWhere AUC0−t represents the area under the pharmacokinetic curve throughout the study."}, "[2]": {"experiment": "In vitro drug release (dialysis method)", "format": "physicochemical", "method": "The release curves of the formulations were obtained using a dialysis method (Zhang et al., [2011]). […] The following procedures were performed as above."}, "[3]": {"experiment": "Biodistribution in rats after oral administration", "format": "in vivo", "conditions": "p.o., 30 mg/kg, during 2 h", "method": "Before the start of the experiment, rats were fasted while allowed to drink freely overnight. […] Rats were sacrificed 0.083, 0.25, 0.5, 1 and 2 h post-administration, and subsequently, the vital organs involving heart, liver, spleen, kidney, lung as well as brain were harvested and processed by following procedures. In brief, the harvest tissues were weighed and homogenized in cold saline. The obtained tissue lysates (100 μL) was methanol precipitated and centrifuged (4 °C, 15 min) followed by injection of the supernatant (50 μL) into HPLC. The NBP concentration in each tissue sample was calculated from the respective standard curves. […] Re= AUC0−t, tissue, formulation/AUC0−t, tissue, NBP suspension (Wang et al., [2014]) Ce=Cmax, tissue, formulation/Cmax, tissue, NBP suspension (Wang et al., [2021])"}, "[4]": {"conditions": "i.v., NBP solution, 30 mg/kg, n = 5"}}, "data": [{"smiles": "CCCCC1OC(=O)c2ccccc21", "note": "(stereo not drawn) [NBP, N-butylphthalide]", "values": [{"measurement": "neurological score compared with I/R group", "setting": "[1]; 24 h", "value": "no significant difference"}, {"measurement": "infarct volume", "setting": "[1]; TTC staining, percentage of total brain area", "value": "27.66 ± 2.59", "unit": "%"}, {"measurement": "Fa (absolute bioavailability)", "setting": "Pharmacokinetics in rats; i.v., 30 mg/kg (reference)", "value": 100, "unit": "%"}, {"measurement": "AUC0-t", "setting": "Pharmacokinetics in rats; [4]", "value": "7590 ± 780", "unit": "ng·h/mL"}, {"measurement": "CLz", "setting": "Pharmacokinetics in rats; [4]", "value": "44.2 ± 4.17", "unit": "mL/min/kg"}, {"measurement": "Cmax", "setting": "Pharmacokinetics in rats; [4]", "value": "25510 ± 3460", "unit": "ng/mL"}, {"measurement": "tmax", "setting": "Pharmacokinetics in rats; [4]", "value": 4.98, "unit": "min"}, {"measurement": "Fa (absolute bioavailability)", "setting": "Pharmacokinetics in rats; p.o., 30 mg/kg", "value": 21.7, "unit": "%"}, {"measurement": "Fr (relative bioavailability to NBP suspension)", "setting": "Pharmacokinetics in rats; p.o., 30 mg/kg", "value": 100, "unit": "%"}, {"measurement": "time at which Cmax was observed on plasma curve", "setting": "Pharmacokinetics in rats; p.o., 30 mg/kg, Figure 3(B)", "value": 2, "unit": "h"}, {"measurement": "AUC0-t", "setting": "Pharmacokinetics in rats; p.o., 30 mg/kg, n = 5", "value": "1650 ± 320", "unit": "ng·h/mL"}, {"measurement": "Cmax", "setting": "Pharmacokinetics in rats; p.o., 30 mg/kg, n = 5", "value": "360 ± 130", "unit": "ng/mL"}, {"measurement": "tmax", "setting": "Pharmacokinetics in rats; p.o., 30 mg/kg, n = 5", "value": "61.2 ± 18.6", "unit": "min"}, {"measurement": "CLz", "setting": "Pharmacokinetics in rats; p.o., 30 mg/kg, n = 5, apparent clearance (CL/F)", "value": "201.8 ± 62.7", "unit": "mL/min/kg"}, {"measurement": "cumulative release during 12 h", "setting": "[2]; SGF pH 1.2 2 h then phosphate buffer pH 6.8, 37 °C", "value": "6.79 ± 0.99", "unit": "%"}, {"measurement": "cumulative drug release within 2 h", "setting": "[2]; SGF pH 1.2, 37 °C, 100 rpm", "value": "about 6%"}, {"measurement": "24 h cumulative drug release amount", "setting": "[2]; SGF pH 1.2 then phosphate buffer pH 6.8, 37 °C", "value": "6.79 ± 0.99", "unit": "%"}, {"measurement": "organ of main accumulation", "setting": "[3]", "value": "mainly in the lung"}]}]}
